Measurements as given in patent US5387592A, “Substituted benzoxazole, benzthiazole, and benzimidazole derivatives as angiotensin II antagonists” (Imperial Chemical Industries PLC, priority 1991, dated 1995).
Counter-ions that a name gives are not always drawn.

Target: T1, AII receptors (Cavia porcellus, UniProt Q9WV26)
T1 construct: the source of cell surface membranes is the guinea pig adrenal gland; from tissue; host or cells: guinea pig adrenal gland, cell surface membrane fraction
T1 sequence (Q9WV26 1-359): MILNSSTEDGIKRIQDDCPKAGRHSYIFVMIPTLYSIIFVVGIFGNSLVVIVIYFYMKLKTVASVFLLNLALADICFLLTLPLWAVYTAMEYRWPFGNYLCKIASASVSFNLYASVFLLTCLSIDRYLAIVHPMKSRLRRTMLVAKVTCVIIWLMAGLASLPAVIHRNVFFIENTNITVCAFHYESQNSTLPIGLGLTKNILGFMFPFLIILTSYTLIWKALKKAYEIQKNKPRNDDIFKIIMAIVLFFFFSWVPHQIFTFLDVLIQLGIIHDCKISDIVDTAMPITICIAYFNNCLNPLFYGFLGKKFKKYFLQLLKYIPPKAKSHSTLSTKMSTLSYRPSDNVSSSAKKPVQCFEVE
Assay: Test A: displacement of radiolabelled AII binding from guinea pig adrenal gland membrane fraction
Conditions: guinea pig adrenal gland membranes; read-out: IC50 (concentration for 50% displacement of radiolabelled AII binding)
Method: This in vitro procedure involves the incubation of the test compound initially at a concentration of 100 micromolar (or less) in a buffered mixture containing fixed concentrations of radiolabelled AII and a cell surface membrane fraction prepared from a suitable angiotensin target tissue. In this test, the source of cell surface membranes is the guinea pig adrenal gland which is well known to respond to AII. Interaction of the radiolabelled AII with its receptors (assessed as radiolabel bound to the particulate membrane fraction following removal of unbound radiolabel by a rapid filtration procedure such as is standard in such studies) is antagonized by compounds which also bind to the membrane receptor sites and the degree of antagonism (observed in the test as displacement of membrane-bound radioactivity) is determined readily by comparing the receptor-bound radioactivity in the presence of the test compound at the specified test concentration with a control value determined in the absence of the test compound. Using this procedure compounds showing at least 50% displacement of radiolabelled AII binding at a concentration of 10^-4 M are retested at lower concentrations to determine their potency. […]

**Q.** With `CCc1cc(OCc2ccc3oc(-c4ccccc4-c4nnn[nH]4)nc3c2)c2c(n1)CCCC2` [Example 3, 2-ethyl-5,6,7,8-tetrahydro-4-[(2-(2-(1H-tetrazol-5-yl)phenyl)benzoxazol-5-yl)methoxy]quinoline hydrochloride] as the compound, how does the IC50 read?
**A.** Its IC50 is 200 nM.
